According to patent US8299069B2, “2-(2-oxoindoline-3-ylidene)methyl-5-(2-hydroxy-3-morpholin-4-yl-propyl)-6,7-dihydro-1H-pyrrol[3,2-C]pyridine-4(5H)-one compounds and use as protein kinase inhibitors” (Jiangsu Hengrui Medicine Co., Ltd., priority 2007, dated 2012):

Legend:
[1] = biological target: recombinant human VEGF-R2 (Homo sapiens, UniProt P35968); test: VEGF-R2 kinase assay (ELISA, DELFIA time-resolved fluorescence)
Description: This assay is used to measure the in vitro kinase activity of recombinant human VEGF-R2 in an enzyme-linked immunosorbent assay (ELISA).
• a. […] Stopping solution: 50 mM EDTA, pH 8.0. • d. DELFIA® Europium-labeled Anti-mouse IgG (PerkinElmer Life Sciences #AD0124). • e. […] DELFIA® Streptavidin coated, 96-well, yellow plate (PerkinElmer Life Sciences #AAAND-0005). • g. Recombinant human VEGFR-2 kinase (supplied in 50 mM Tris-HCl, pH8.0, 100 mM NaCl, 5 mM DTT, 15 mM reduced glutathione and 20% glycerol). […] HTScan™ Tyrosine Kinase Buffer (4×). • 1× Kinase Buffer: • 60 mM HEPES • 5 mM MgCl2 • 5 mM MnCl2 • 3 μM Na3VO4 • l. […] Procedure
The following protocol was used: • 1. […] VEGFR-2 kinase was transferred from −80° C. to ice immediately, and the kinase was thawed on ice. • 4. 2.2 μs VEGFR-2 enzyme was added to enzyme tube. • 5. […] 0.75 ml of DTT/Kinase buffer was transferred to the enzyme tube to prepare 4× reaction cocktail, and 7.5 μl 4× reaction cocktail was added to each assay. • 7. 2 μl ATP (10 mM) was added to 498 μl dH2O, and 7.5 μl was added to each assay. […] The reaction tube was incubated at 25° C. for 30 minutes. • 9. 30 μl/assay stopping solution (50 mM EDTA, pH 8.0) was added to stop the reaction. • 10. 25 μl of each reaction and 75 μl dH2O were transferred to a 96-well streptavidin coated plate, with shaking at room temperature for 60 minutes. • 11. Each well was washed for three times with 200 μl PBS-T buffer. Plate was patted on paper towel to remove excess liquid. • 12. […] The plate was incubated with shaking at room temperature for 60 minutes. • 14. Washing step was carried out as described in step 11. • 15. […] The plate was incubated with shaking at room temperature for 30 minutes. • 17. Each well was washed for five times with 200 μl PBS-T buffer. Plate was patted on paper towel to remove excess liquid. • 18. 100 μl DELFIA® Enhancement Solution was added to each well. • 19. The plate was incubated with shaking at room temperature for 5 minutes. • 20. The fluorescence intensity was detected at wavelength of 615 nm in a time-resolved fluorescence mode on plate reader.
The IC50 value can be calculated from the IRs of compounds at different concentration gradients.

[2] = system: HUVEC cell; test: Cell proliferation inhibition assay (SRB) on HUVEC cells highly expressing VEGFR; conditions: Homo sapiens, 72 h, read-out: IC50 (VEGFR/HUVEC)
Excerpt: The cellular assay described here is used to test anti-angiogenesis and proliferation inhibition activity and effect of the compounds through VEGFR on the cancer cells in vitro. The effect and activity is represented by the IC50 value that kills the cancer cells. The general procedures of the assay are as follows: The Homo sapiens cells that highly expressing VEGFR were chosen and seeded to 96-well cell culture plate at a suitable concentration (e.g., 5000 cells/mL medium). […] Then, the cell culture medium was replaced by fresh one with testing compounds added in it at serial concentrations (general 6 or 7 concentrations). Then the cells were put back to the incubator and cultured for 72 hours continuously. 72 hours later, the treated compounds were assayed for their proliferation status by using Sulforhodamine B (SRB) method. IC50 of compounds on tested cells was calculated by using data of inhibition rate of serial concentrations of the testing compounds.
The following protocol is used to assay the cell toxicity (anti-proliferation activity, which is expressed as IC50 value) of testing compounds of the invention on HUVEC cell: • 1. HUVEC cells were cultured with growth media (DMEM/F12, supplemented with 10% FBS) in 100 mm corning culture plate at 37° C., 5% CO2 till confluency. • 2. HUVEC cells were washed with cold PBS solution, then the cells were harvested by trypsinization and seeded in corning 96-well cell culture plates at a concentration of 50,000 cells/ml, 6 empty wells were left on each plate as plate background. • 3. The cells were cultured in 96-well plates at 37° C., 5% CO2, till 85% confluency. • 4. The compound stock solution was prepared by using DMSO to solve candidate compounds to a concentration of 20 mM. Then DMSO was used to dilute the stock solution to a serial concentration to prepare testing compound solution samples (e.g., 2 mM, 1 mM, 0.2 mM, 20 μM, 2 μM, 0.2 μM). • 5. Cell culture medium (DMEM/F12+10% FBS) was used to dilute the compound solution prepared previously. […] Background absorbance was measured in wells incubated only with growth medium. • 11. […]

recombinant human VEGF-R2, sequence (P35968 789-1356 limits assumed): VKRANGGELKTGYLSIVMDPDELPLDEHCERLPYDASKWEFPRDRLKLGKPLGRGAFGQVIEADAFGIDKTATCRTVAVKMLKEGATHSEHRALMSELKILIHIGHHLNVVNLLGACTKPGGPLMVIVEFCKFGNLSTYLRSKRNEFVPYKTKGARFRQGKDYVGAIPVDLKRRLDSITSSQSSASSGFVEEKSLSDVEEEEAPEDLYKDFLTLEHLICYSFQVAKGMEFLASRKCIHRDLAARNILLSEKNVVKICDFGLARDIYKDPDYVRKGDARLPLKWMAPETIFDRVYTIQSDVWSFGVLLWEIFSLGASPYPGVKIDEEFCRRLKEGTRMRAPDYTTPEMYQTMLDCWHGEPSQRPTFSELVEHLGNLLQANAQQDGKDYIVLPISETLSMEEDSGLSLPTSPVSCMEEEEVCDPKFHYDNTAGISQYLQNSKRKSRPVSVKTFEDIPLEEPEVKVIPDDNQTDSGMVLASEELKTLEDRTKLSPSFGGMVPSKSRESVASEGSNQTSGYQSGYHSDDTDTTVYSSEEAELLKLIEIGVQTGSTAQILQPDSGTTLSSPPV

Compound	IC50 [1]	IC50 [2]
COCC(=O)Nc1cc2c(cc1F)/C(=C/c1[nH]c3c(c1C)C(=O)N(C[C@@H](O)CN1CCOCC1)CC3)C(=O)N2 [Example 13, (S,Z)-N-{5-Fluoro-3-[5-(2-hydroxy-3-morpholin-4-yl-propyl)-3-methyl-4-oxo-4,5,6,7-tetrahydro-1H-pyrrolo[3,2-c]pyridin-2-ylmethylene]-2-oxo-2,3-dihydro-1H-indol-6-yl}-2-methoxy-acetamide]	130 nM	–
Cc1c(/C=C2\C(=O)Nc3cccc(-c4cccc(F)c4F)c32)[nH]c2c1C(=O)N(C[C@H](O)CN1CCOCC1)CC2 [Example 3, 2-[(Z)-4-(2,3-Difluoro-phenyl)-2-oxo-1,2-dihydro-indol-3-ylidenemethyl]-5-[(R)-2-hydroxy-3-morpholin-4-yl-propyl]-3-methyl-1,5,6,7-tetrahydro-pyrrolo[3,2-c]pyridin-4-one]	–	840 nM
Cc1c(/C=C2\C(=O)Nc3cc(NC(=O)C(C)(C)O)c(F)cc32)[nH]c2c1C(=O)N(C[C@H](O)CN1CCOCC1)CC2 [Example 17, (R,Z)-N-{5-Fluoro-3-[5-(2-hydroxy-3-morpholin-4-yl-propyl)-3-methyl-4-oxo-4,5,6,7-tetrahydro-1H-pyrrolo[3,2-c]pyridin-2-ylmethylene]-2-oxo-2,3-dihydro-1H-indol-6-yl}-2-hydroxy-2-methyl-propionamide]	4 nM	–
Cc1c(/C=C2\C(=O)Nc3cccc(-c4c(F)cccc4F)c32)[nH]c2c1C(=O)N(C[C@@H](O)CN1CCOCC1)CC2 [Example 20, (S,Z)-2-[4-(2,6-Difluoro-phenyl)-2-oxo-1,2-dihydro-indol-3-ylidenemethyl]-5-(2-hydroxy-3-morpholin-4-yl-propyl)-3-methyl-1,5,6,7-tetrahydro-pyrrolo[3,2-c]pyridin-4-one]	–	10 nM
COCC(=O)Nc1cc2c(cc1F)/C(=C/c1[nH]c3c(c1C)C(=O)N(C[C@H](O)CN1CCOCC1)CC3)C(=O)N2 [Example 16, (R,Z)-N-{5-Fluoro-3-[5-(2-hydroxy-3-morpholin-4-yl-propyl)-3-methyl-4-oxo-4,5,6,7-tetrahydro-1H-pyrrolo[3,2-c]pyridin-2-ylmethylene]-2-oxo-2,3-dihydro-1H-indol-6-yl}-2-methoxy-acetamide]	110 nM	–
Cc1c(/C=C2\C(=O)Nc3ccc(Cl)cc32)[nH]c2c1C(=O)N(C[C@H](O)CN1CCOCC1)CC2 [Example 2, (R,Z)-2-(5-Chloro-2-oxo-1,2-dihydro-indol-3-ylidenemethyl)-5-(2-hydroxy-3-morpholin-4-yl-propyl)-3-methyl-1,5,6,7-tetrahydro-pyrrolo[3,2-c]pyridin-4-one]	–	2400 nM
Cc1c(/C=C2\C(=O)Nc3cc(NC(=O)C(C)(C)O)c(F)cc32)[nH]c2c1C(=O)N(C[C@@H](O)CN1CCOCC1)CC2 [Example 11, (S,Z)-N-{5-Fluoro-3[5-(2-hydroxy-3-morpholin-4-yl-propyl)-3-methyl-4-oxo-4,5,6,7-tetrahydro-1H-pyrrolo[3,2-c]pyridin-2-ylmethylene]-2-oxo-2,3-dihydro-1H-indol-6-yl}-2-hydroxy-2-methyl-propionamide]	3 nM	–
Cc1c(/C=C2\C(=O)Nc3ccc(Br)cc32)[nH]c2c1C(=O)N(C[C@H](O)CN1CCOCC1)CC2 [Example 4, (R,Z)-2-(5-Bromo-2-oxo-1,2-dihydro-indol-3-ylidenemethyl)-5-(2-hydroxy-3-morpholin-4-yl-propyl)-3-methyl-1,5,6,7-tetrahydro-pyrrolo[3,2-c]pyridin-4-one]	998 nM	–
